Key:
Plasmodium falciparum [1] = assay: Antimalarial activity against Plasmodium falciparum using Malstat reagent by parasite lactate dehydrogenase assay; type: functional, organism-based
Vero = assay: Cytotoxicity against African green monkey Vero cells by neutral red assay; type: cell-based; conditions: Chlorocebus sabaeus
[2] = Selectivity index, ratio of IC50 for African green monkey Vero cells to IC50 for Plasmodium falciparum; type: toxicity; conditions: read-out: Ratio IC50
Schistosoma mansoni [3] = assay: Antiparasitic activity against Schistosoma mansoni assessed cell viability at 20 uM after 4 days; type: functional
Schistosoma mansoni [4] = assay: Antiparasitic activity against Schistosoma mansoni assessed as cumulative egg reduction at 20 uM; type: functional; design: scale not given: the % may be the effect or the level left
Trypanosoma cruzi = assay: Antitrypanosomal activity against epimastigotes of Trypanosoma cruzi […] by Alamar Blue assay; type: functional, organism-based
[5] = Inhibition of recombinant Trypanosoma cruzi Sir2rp3
Schistosoma mansoni [6] = assay: Antiparasitic activity against Schistosoma mansoni assessed as pairing at 20 uM after 5 days relative to control; type: functional
Toxoplasma gondii = assay: Antiparasitic activity against Toxoplasma gondii; type: functional, organism-based
Plasmodium falciparum [7] = assay: Gametocytocidal activity against transgenic GFP-fused Plasmodium falciparum NF54 early stage gametocytes after 72 hrs by Mitotracker Red CMH2XRos staining based microscopic method; type: functional, organism-based; conditions: NF54, 72 h
Plasmodium falciparum [8] = assay: Gametocytocidal activity against transgenic GFP-fused Plasmodium falciparum NF54 late stage gametocytes after 72 hrs by Mitotracker Red CMH2XRos staining based microscopic method; type: functional, organism-based; conditions: NF54, 72 h
Plasmodium falciparum [9] = assay: Antimalarial activity against Plasmodium falciparum infected in human erythrocytes after 24 hrs by microbeta scintillation counting-based [3H]-hypoxanthine incorporation assay; type: functional, organism-based
[10] = Selectivity index, ratio of IC50 for human NHDF cells to IC50 for Plasmodium falciparum; type: toxicity; conditions: read-out: Ratio IC50
[11] = Selectivity index, ratio of IC50 for HUVEC to IC50 for Plasmodium falciparum; type: toxicity; conditions: human, read-out: Ratio IC50
[12] = Selectivity index, ratio of IC50 for human PTC cells to IC50 for Plasmodium falciparum; type: toxicity; conditions: read-out: Ratio IC50
[13] = Selectivity index, ratio of IC50 for human NFF cells to IC50 for Plasmodium falciparum; type: toxicity; conditions: read-out: Ratio IC50
Histone deacetylase = biological target: T1, Histone deacetylase (Plasmodium falciparum, UniProt Q9XYC7); assay: Inhibition of HDAC1 in Plasmodium falciparum 3D7 nuclear extract using Ac-RGK(Ac)-AMC fluorogenic peptide as substrate preincubated for 1 hr followed by substrate addition measured after 10 min by fluorescence assay
T1 sequence (Q9XYC7 whole entry): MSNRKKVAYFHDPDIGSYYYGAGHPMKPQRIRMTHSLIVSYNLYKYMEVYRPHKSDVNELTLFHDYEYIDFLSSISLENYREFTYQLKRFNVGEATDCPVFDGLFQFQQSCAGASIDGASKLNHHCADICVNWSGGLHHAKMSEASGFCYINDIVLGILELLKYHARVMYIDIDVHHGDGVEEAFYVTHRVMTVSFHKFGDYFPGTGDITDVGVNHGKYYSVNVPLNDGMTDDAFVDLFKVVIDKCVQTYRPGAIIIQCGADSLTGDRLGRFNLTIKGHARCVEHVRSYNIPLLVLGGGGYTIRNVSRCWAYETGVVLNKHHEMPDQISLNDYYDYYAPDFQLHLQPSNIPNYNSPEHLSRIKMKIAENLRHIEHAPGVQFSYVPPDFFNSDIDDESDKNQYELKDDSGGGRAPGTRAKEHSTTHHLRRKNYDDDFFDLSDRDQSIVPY

[14] = biological target: T2, Histone deacetylase (Plasmodium falciparum) (UniProt Q9XYC7); assay: Inhibition of recombinant HDAC1 in recombinant Plasmodium falciparum at 1 uM using Ac-RGK(Ac)-AMC fluorogenic peptide as substrate preincubated for 1 hr followed by substrate addition measured after 10 min by fluorescence assay
T2 sequence (whole entry): T1 sequence (Q9XYC7 whole entry)

[15] = Selectivity index, ratio of IC50 for human NFF cells to IC50 for Trypanosoma brucei brucei; type: toxicity; conditions: read-out: Selectivity Index
[16] = Selectivity index, ratio of IC50 for HEK293 cells to IC50 for Trypanosoma brucei brucei; type: toxicity; conditions: human, read-out: Selectivity Index
[17] = Selectivity index, ratio of IC50 for HEK293 cells to IC50 for Plasmodium falciparum; type: toxicity; conditions: human, read-out: Ratio IC50
Plasmodium falciparum [18] = assay: Antimalarial activity against asexual-stage of Plasmodium falciparum 3D7 after 24 hrs by microbeta scintillation counting-based [3H]-hypoxanthine incorporation assay; type: functional, organism-based
Plasmodium falciparum [19] = assay: Gametocytocidal activity against transgenic GFP-fused Plasmodium falciparum NF54 […] gametocytes after 72 hrs by Mitotracker Red CMH2XRos staining-based confocal microscopic method; type: functional, organism-based; conditions: NF54, 72 h
NFF = assay: Cytotoxicity against human NFF cells after 72 hrs by SRB assay; type: cell-based
[20] = Selectivity index, ratio of IC50 for human NFF cells to IC50 for asexual-stage of Plasmodium falciparum 3D7; type: toxicity; conditions: read-out: Ratio IC50
[21] = Selectivity index, ratio of IC50 for human NFF cells to IC50 for transgenic GFP-fused Plasmodium falciparum NF54 […] gametocyte; type: toxicity; conditions: read-out: Ratio IC50

Compound `Cn1cc(C(=O)Cc2ccccc2)cc1/C=C/C(=O)NO` has an IC50 (Plasmodium falciparum [1]) of 1200 to 4000 nM, an IC50 (Vero) greater than 20000 nM and a selectivity ratio [2] of 5 to 17.
`CC(C(=O)Nc1cccc(/N=C/c2c(O)ccc3ccccc23)c1)c1ccccc1` (configuration not stated) [SALERMIDE] showed an Activity (Schistosoma mansoni [3]) of 100%, an Activity (Schistosoma mansoni [4]) of 95% and an EC50 (Trypanosoma cruzi) of 10600 nM. It also gave an IC50 [5] of 1000 nM and an Activity (Schistosoma mansoni [6]) of 100%.
`CCC(=O)CCCCC[C@@H]1NC(=O)[C@H]2CCCCN2C(=O)[C@H]([C@@H](C)CC)NC(=O)[C@H](Cc2cn(OC)c3ccccc23)NC1=O` [APICIDIN] gave an IC50 (Toxoplasma gondii) of 13 to 15 nM.
In the case of `O=C(CCCCCCC(=O)Nc1ccccc1)NO` [VORINOSTAT], the IC50 (Plasmodium falciparum [7]) is reported as 1680 to 6650 nM and the IC50 (Plasmodium falciparum [8]) is reported as 1680 to 6650 nM.
Compound `CCCCc1nc2cc(/C=C/C(=O)NO)ccc2n1CCN(CC)CC` [PRACINOSTAT] has an IC50 (Plasmodium falciparum [9]) of 80 to 150 nM, a selectivity ratio [10] of 4 to 1250 and a selectivity ratio [11] of 4 to 1250. It also gave a selectivity ratio [12] of 4 to 1250 and a selectivity ratio [13] of 4 to 1250.
`C/C=C1\NC(=O)[C@H]2CSSCC/C=C/[C@H](CC(=O)N[C@H](C(C)C)C(=O)N2)OC(=O)[C@H](C(C)C)NC1=O` [ROMIDEPSIN] gave an IC50 (Histone deacetylase) of 0.9 nM, an inhibition [14] of 48% and a selectivity ratio [15] of less than 1. For the same compound, the selectivity ratio [16] was less than 1, the selectivity ratio [13] was less than 1 and the selectivity ratio [17] was less than 1.
With `CC(C)(C)c1ccc(NC(=O)NOCCCCCC(=O)NO)cc1` the IC50 (Plasmodium falciparum [18]) was 160 nM, the IC50 (Plasmodium falciparum [19]) was 3450 nM and the IC50 (NFF) was 4900 nM. For the same compound, the selectivity ratio [20] was 31 and the selectivity ratio [21] was 2.
